Reference: PubChem BioAssay (NCI)
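Tested at 5 concentrations; 48 h exposure; 96-well plates; endpoints linearly interpolated, else capped at highest concentration. At the TGI there is no net growth.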

Tests used:
Experiment in all cases: NCI tumour cell line growth inhibition, 48 h
[1] = system: HCT-116 colon
[2] = system: UACC-62 melanoma
[3] = system: KM20L2 colon
[4] = system: SF-539 CNS
[5] = system: SF-295 CNS
[6] = system: KM12 colon
[7] = system: XF 498 CNS
[8] = system: DMS 114 small cell lung
[9] = system: HL-60(TB) leukemia
[10] = system: UACC-257 melanoma
[11] = system: A498 renal

| Structure (SMILES) | TGI [1] [µM] | TGI [2] [µM] | TGI [3] [µM] | TGI [4] [µM] | TGI [5] [µM] | TGI [6] [µM] | TGI [7] [µM] | TGI [8] [µM] | TGI [9] [µM] | TGI [10] [µM] | TGI [11] [µM] |
| --- | --- | --- | --- | --- | --- | --- | --- | --- | --- | --- | --- |
| C=C1C(=O)O[C@H]2[C@H]1[C@H](OC(=O)/C(C)=C\C)CC(=C)[C@@H]1[C@H](O)[C@H]3O[C@@]3(C)[C@@]12O | > 100 | > 100 | > 100 | > 100 | > 100 | > 100 | > 100 | > 100 |  |  |  |
| C=CCC1([C@H](C)[C@@H](OC(C)=O)c2cc(OC)c(OC)c(OC)c2)C[C@@H](OC)CCC1=O (some centres undefined) | 32.3 | 34.9 | 24.6 | 30.8 | 39.7 | 37 | 32.9 | 44.4 | 45 |  |  |
| COc1ccccc1NC(=O)CC(=O)N1N=C(C)C(N=Nc2ccc(S(N)(=O)=O)cc2)C1=O (centres undefined) | > 100 | > 100 | > 100 | > 100 | > 100 | > 100 | > 100 | > 100 |  | > 100 | > 100 |
| N#C/C(=C1\OC(=O)C(c2ccc(Br)cc2)=C1O)c1ccc(Br)cc1 | 32.4 | 25.9 | 31.5 | 30 | 32.8 | 28.5 | 25.6 | 25.9 | 44.6 | 29.5 | 28.9 |
| COc1ccc(-c2cc(=O)c3cc4c(cc3[nH]2)OCO4)c(OC)c1OC | > 100 | > 100 | > 100 | > 100 | > 100 | > 100 | > 100 | > 100 | > 100 |  |  |
| CC(=O)NC(CCCNCc1ccccc1)C(=O)NCc1ccccc1 (centres undefined) | > 100 | > 100 | > 100 | > 100 | > 100 | > 100 | > 100 | > 100 |  | > 100 | > 100 |
| N#CC(C(=O)/C(=N/NC(=O)c1ccccc1O)C(C#N)c1ccc(Cl)cc1)c1ccc(Cl)cc1 (centres undefined) | 40.2 |  | 27.2 | 31.3 | 29.9 | 30 | 26.3 | 69.7 | 53.1 | 27.7 | 25.5 |
| O=C(c1ccc(F)cc1)c1cccc(C(=O)c2ccc(F)cc2)n1 | 81.8 | > 100 | > 100 | 56.3 | 39.3 | > 100 | > 59.7 | 96.4 | > 100 | > 56.2 | > 100 |
| CN(C(=O)C12C3C4C5C3C1(C(=O)O)C5C42)C(C)(C)C (centres undefined) | > 100 | > 100 | > 100 | > 100 | > 100 | > 100 | > 100 | 72.6 | 32 | > 100 | > 100 |
| CC1=NOC(=O)/C1=C/c1ccccc1O | > 100 | > 100 | > 100 | > 100 | > 100 | > 100 | > 100 | > 100 | > 100 | > 100 |  |
| c1cc(-c2cn3ccsc3n2)ccn1 | > 100 | > 100 | > 31.6 | > 100 | > 100 | > 100 | > 100 | > 100 | > 60.1 | > 100 | > 100 |
| Cc1cccc(NC(=O)CC(=O)N2N=C(N(CCC#N)c3ccc(Cl)cc3)CC2c2ccccc2)c1 (centres undefined) | > 100 | > 100 |  | > 100 | > 100 | > 100 | > 100 | > 100 | > 100 | > 100 |  |
